Assay results: the Kinase Knowledgebase extract (Sharma et al. 2016)

Legend:
PIK3CA (human) [1] = biological target: PIK3CA (human) (UniProt P42336); assay: Inhibition of PIK3CA Kinase Activity
PIK3CA (human) [2] = biological target: PIK3CA (human) (UniProt P42336); assay: Inhibition of A2780 Cell Proliferation

Sequence of PIK3CA (human) (P42336 whole entry, looked up): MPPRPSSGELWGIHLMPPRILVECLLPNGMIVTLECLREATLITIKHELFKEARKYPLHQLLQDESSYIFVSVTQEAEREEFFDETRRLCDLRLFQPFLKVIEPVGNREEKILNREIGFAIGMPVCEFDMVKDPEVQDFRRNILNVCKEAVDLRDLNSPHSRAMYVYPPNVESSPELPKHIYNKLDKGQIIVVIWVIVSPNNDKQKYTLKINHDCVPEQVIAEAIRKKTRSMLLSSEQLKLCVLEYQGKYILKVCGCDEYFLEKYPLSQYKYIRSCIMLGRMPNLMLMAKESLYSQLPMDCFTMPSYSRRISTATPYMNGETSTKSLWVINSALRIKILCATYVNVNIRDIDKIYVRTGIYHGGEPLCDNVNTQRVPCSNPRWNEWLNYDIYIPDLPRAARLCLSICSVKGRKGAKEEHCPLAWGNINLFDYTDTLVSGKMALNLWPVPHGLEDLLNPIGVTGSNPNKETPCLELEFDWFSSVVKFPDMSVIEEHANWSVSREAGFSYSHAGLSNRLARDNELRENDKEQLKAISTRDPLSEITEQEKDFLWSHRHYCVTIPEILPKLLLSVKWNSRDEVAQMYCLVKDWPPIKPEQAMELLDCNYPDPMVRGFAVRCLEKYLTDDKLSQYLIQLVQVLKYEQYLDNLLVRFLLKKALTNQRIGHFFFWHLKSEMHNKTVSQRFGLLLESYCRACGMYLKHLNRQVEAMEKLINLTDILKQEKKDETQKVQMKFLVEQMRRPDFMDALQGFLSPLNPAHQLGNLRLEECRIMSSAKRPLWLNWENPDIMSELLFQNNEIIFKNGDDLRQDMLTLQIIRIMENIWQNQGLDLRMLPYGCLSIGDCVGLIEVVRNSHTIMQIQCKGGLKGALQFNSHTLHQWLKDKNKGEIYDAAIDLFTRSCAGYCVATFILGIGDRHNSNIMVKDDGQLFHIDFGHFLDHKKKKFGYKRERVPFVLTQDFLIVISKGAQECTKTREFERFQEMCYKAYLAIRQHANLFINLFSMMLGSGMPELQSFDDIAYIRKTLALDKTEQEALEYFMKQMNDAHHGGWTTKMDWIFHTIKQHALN

Compound | IC50 (PIK3CA (human) [1]) [nM] | EC50 (PIK3CA (human) [2]) [nM]
CC(=O)Nc1nc2ccc(-c3cnc(N)c(C(F)(F)F)c3)cn2c1-c1cccc(F)c1 | < 1000 | < 25000
CCOc1nc(-c2ccc3nc(NC(C)=O)cn3n2)cnc1N | < 1000 | < 10000
CC(=O)Nc1cn2nc(-c3cnc(N)c(C(=O)NCCN)c3)ccc2n1 | < 1000 | < 25000
Nc1ncc(-c2ccc3nc(NC(=O)Cc4ccccn4)cn3c2)cc1C(F)(F)F | < 1000 | < 10000
Nc1ncc(-c2ccc3nc(NC(=O)COCc4ccccc4)cn3n2)cc1C(F)(F)F | < 1000 | < 10000
Nc1ncc(-c2ccc3nc(NC(=O)COC4CCNCC4)cn3c2)cc1C(F)(F)F | < 1000 | < 10000
CC(=O)Nc1cn2cc(-c3cnc(N)c(-c4cccc(F)c4)c3)ccc2n1 | < 1000 | < 10000
Nc1ncc(-c2ccc3nc(NC(=O)N4CCC[C@H]4CO)cn3c2)cc1C(F)(F)F | < 1000 | < 10000
CC(=O)Nc1cn2cc(-c3cnc(N)c(OC4CN(C(=O)c5ccccc5)C4)n3)ccc2n1 | < 1000 | < 10000
COC(=O)Nc1cn2cc(-c3cnc(N)c(C(F)(F)F)c3)ccc2n1 | < 1000 | < 10000
CC(=O)Nc1cn2nc(-c3cnc(N)c(-c4ccccc4C(F)(F)F)c3)ccc2n1 | < 1000 | < 1000
CC(=O)Nc1cn2cc(-c3cnc(N)c(C)n3)ccc2n1 | < 1000 | < 10000
CCN(CC)CCOc1cc(-c2ccc3nc(NC(C)=O)cn3c2)cnc1N | < 10000 | < 25000
COc1cc(-c2ccc3nc(NC(C)=O)cn3n2)c(C)nc1N | < 10000 | < 25000
CCN(CC)CC#Cc1c(NC(C)=O)nc2ccc(-c3cnc(N)c(C(F)(F)F)c3)cn12 | < 1000 | < 10000
CC(=O)Nc1cn2cc(-c3cnc(N)c(-c4cccc(OC(F)(F)F)c4)c3)ccc2n1 | < 1000 | < 1000
CCNN=Cc1cc(-c2ccc3nc(NC(C)=O)cn3c2)cnc1N | < 1000 | < 10000
NCC(=O)Nc1cn2cc(-c3cnc(N)c(C(F)(F)F)c3)ccc2n1 | < 1000 | < 10000
Nc1ncc(-c2ccc3nc(NC(=O)[C@@H]4CCCCN4Cc4ccccc4)cn3c2)cc1C(F)(F)F | < 1000 | < 10000
CON=Cc1cc(-c2ccc3nc(NC(C)=O)cn3c2)cnc1N | < 1000 | < 25000
COc1cc(-c2ccc3nc(NC(C)=O)cn3c2)c(C)nc1N | ≥ 25000 | < 10000

Compound | IC50 (PIK3CA (human) [1]) [nM] | EC50 (PIK3CA (human) [2]) [nM]
COCCOc1nc(-c2ccc3nc(NC(=O)COC)cn3c2)cnc1N | < 1000 | < 10000
COCCCOc1nc(-c2ccc3nc(NC(C)=O)cn3c2)cnc1N | < 1000 | < 1000
CNC(=O)c1ccc(-c2c(NC(C)=O)nc3ccc(-c4cnc(N)c(C(F)(F)F)c4)cn23)cc1 | < 1000 | < 25000
CC(=O)Nc1cn2nc(-c3cnc(N)c(-c4ccn(C)n4)c3)ccc2n1 | < 1000 | < 1000
CC(=O)Nc1cn2cc(-c3cnc(N)c(C(=O)N4CCCC4)c3)ccc2n1 | < 1000 | < 25000
CC(=O)Nc1cn2cc(-c3cnc(N)c(-c4ccc(OC(F)(F)F)cc4)c3)ccc2n1 | < 1000 | < 1000
CNC(=O)Nc1nc2ccc(-c3ccc(N)nc3)cc2s1 | < 1000 | < 10000
NC(=O)[C@@H]1CCCN1C(=O)Nc1nc2ccc(-c3cnc(N)c(C(F)(F)F)c3)cc2s1 | < 1000 | < 10000
CC(=O)Nc1cn2cc(-c3cnc(N)c(OCC4CCN(C)CC4)n3)ccc2n1 | < 1000 | < 10000
CN(CC(=O)Nc1cn2nc(-c3cnc(N)c(C(F)(F)F)c3)ccc2n1)C(=O)OC(C)(C)C | < 1000 | < 10000
C=Cc1c(NC(C)=O)nc2ccc(-c3cnc(N)c(C(F)(F)F)c3)cn12 | < 1000 | < 25000
CNC(=O)C1CCN(C(=O)Nc2cn3cc(-c4cnc(N)c(C(F)(F)F)c4)ccc3n2)C1 (stereo unspecified) | < 1000 | < 25000
Nc1ncc(-c2ccc3nc(NC(=O)CCCN4CCCCC4)cn3c2)cc1C(F)(F)F | < 1000 | < 10000
CC(=O)Nc1cn2cc(-c3cnc(N)c(OC4CN(C(=O)OC(C)(C)C)C4)n3)ccc2n1 | < 1000 | < 1000
CC(=O)Nc1cn2cc(-c3cnc(N)c(Br)n3)ccc2n1 | < 1000 | < 25000
COc1ccc(C#Cc2c(NC(C)=O)nc3ccc(-c4cnc(N)c(C(F)(F)F)c4)cn23)cc1 | < 1000 | < 10000
COCCOc1nc(-c2ccc3nc(NC(C)=O)sc3c2)cnc1N | < 1000 | < 10000
Nc1ncc(-c2ccc3nc(NC(=O)c4cccnc4)cn3c2)cc1C(F)(F)F | < 1000 | < 10000
CC(=O)Nc1cn2cc(-c3cnc(N)c(-c4ccccc4)n3)ccc2n1 | < 1000 | < 10000
CCCc1c(NC(C)=O)nc2ccc(-c3cnc(N)c(C(F)(F)F)c3)cn12 | < 1000 | < 25000
Nc1ncc(-c2ccc3nc(NC(=O)CN4CCCCC4)cn3n2)cc1C(F)(F)F | < 1000 | < 10000

Compound | IC50 (PIK3CA (human) [1]) [nM] | EC50 (PIK3CA (human) [2]) [nM]
C/C=C/C(=O)Nc1cn2cc(-c3cnc(N)c(C(F)(F)F)c3)ccc2n1 | < 1000 | < 10000
N#Cc1cccc(C(=O)Nc2cn3cc(-c4cnc(N)c(C(F)(F)F)c4)ccc3n2)c1 | < 1000 | < 10000
CN(C)C1CCN(C(=O)Nc2cn3cc(-c4cnc(N)c(C(F)(F)F)c4)ccc3n2)C1 (stereo unspecified) | < 1000 | < 10000
CC(=O)Nc1cn2nc(-c3cnc(N)c(C(=O)NCCN4CCCC4)c3)ccc2n1 | < 1000 | < 10000
CC(=O)Nc1cn2cc(-c3cnc(N)c(OC4CCN(C)CC4)n3)ccc2n1 | < 10000 | < 25000
CC(C)(C)OC(=O)N1CC(C(=O)Nc2cn3cc(-c4cnc(N)c(C(F)(F)F)c4)ccc3n2)C1 | < 1000 | < 10000
Nc1ncc(-c2ccc3nc(NC(=O)C(F)(F)F)cn3c2O)cc1C(F)(F)F | < 10000 | < 25000
CC(=O)Nc1cn2cc(-c3cnc(N)c(-c4cccc(N5CCOCC5)c4)c3)ccc2n1 | < 1000 | < 1000
C/C=C/c1c(NC(C)=O)nc2ccc(-c3cnc(N)c(C(F)(F)F)c3)cn12 | < 1000 | < 10000
CC(=O)Nc1cn2nc(-c3cnc(N)c(CN4CCCC4)c3)ccc2n1 | < 1000 | < 10000
Nc1ccc(-c2ccc3nc(NC(=O)OCCN4CCOCC4)sc3c2)cn1 | < 1000 | < 25000
CC(=O)Nc1nc2ccc(-c3cnc(N)c(C(F)(F)F)c3)c(C)c2s1 | < 1000 | < 10000
CC(=O)Nc1cn2cc(-c3cnc(N)c(C(=O)N4CCNCC4)c3)ccc2n1 | < 1000 | < 25000
CC(=O)Nc1cn2cc(-c3cnc(N)cn3)ccc2n1 | < 1000 | < 25000
Nc1ncc(-c2ccc3nc(NC(=O)N4CCC(C(=O)O)C4)cn3c2)cc1C(F)(F)F (stereo unspecified) | < 1000 | < 25000
COC(=O)Nc1nc2ccc(-c3ccc(N)nc3)cc2s1 | < 1000 | < 10000
CC(C)(C(=O)Nc1cn2cc(-c3cnc(N)c(C(F)(F)F)c3)ccc2n1)c1ccccc1 | < 10000 | < 25000
CC(=O)Nc1cn2cc(-c3cnc(N)c(C=NNc4ccccc4)c3)ccc2n1 | < 1000 | < 1000
CC(=O)Nc1cn2cc(-c3cnc(N)c(-c4ccc(C(F)(F)F)cc4)c3)ccc2n1 | < 1000 | < 1000
CCN(CC)Cc1cc(-c2ccc3nc(NC(C)=O)cn3c2)cnc1N | < 1000 | < 25000
CC(=O)Nc1nc2ccc(-c3cnc(N)c(F)c3)cc2s1 | < 1000 | < 10000

Compound | IC50 (PIK3CA (human) [1]) [nM] | EC50 (PIK3CA (human) [2]) [nM]
COc1ccc(CC(=O)Nc2cn3cc(-c4cnc(N)c(C(F)(F)F)c4)ccc3n2)cc1 | < 1000 | < 1000
CC(C)(C)OC(=O)NCC(=O)Nc1cn2nc(-c3cnc(N)c(C(F)(F)F)c3)ccc2n1 | < 1000 | < 10000
CC(=O)Nc1cn2cc(-c3cnc(N)c(-c4ccccc4OC(F)(F)F)c3)ccc2n1 | < 1000 | < 10000
CC(=O)Nc1cn2cc(-c3cnc(N)nc3)ccc2n1 | < 1000 | < 25000
CC(=O)Nc1cn2cc(-c3cnc(N)c(C(=O)NCCO)n3)ccc2n1 | < 1000 | < 25000
CC(=O)Nc1cn2nc(-c3cnc(N)cn3)ccc2n1 | < 1000 | < 25000
CC(=O)Nc1cn2nc(-c3cnc(N)c(N4CCOCC4)n3)ccc2n1 | < 1000 | < 25000
CC(=O)Nc1nc2ccc(-c3cnc(N)c(C(F)(F)F)c3)cn2c1Br | < 1000 | < 25000
Nc1ncc(-c2ccc3nc(NC(=O)N4CC[C@H]4C(=O)O)cn3c2)cc1C(F)(F)F | < 10000 | < 25000
CC(=O)N1CCC[C@H]1C(=O)Nc1cn2cc(-c3cnc(N)c(C(F)(F)F)c3)ccc2n1 | < 1000 | < 25000
COCC(=O)Nc1cn2nc(-c3cnc(N)c(C(F)(F)F)c3)ccc2n1 | < 1000 | < 1000
CC(=O)Nc1cn2cc(-c3cnc(N)c(C=NOC(C)(C)C)c3)ccc2n1 | < 1000 | < 25000
Nc1ncc(-c2ccc3nc(NC(=O)CO[C@@H]4CCNC4)cn3n2)cc1C(F)(F)F | < 1000 | < 1000
COc1ccc(CC(=O)Nc2cn3cc(-c4cnc(N)c(C(F)(F)F)c4)ccc3n2)cc1OC | < 1000 | < 10000
NCCC(=O)Nc1cn2nc(-c3cnc(N)c(C(F)(F)F)c3)ccc2n1 | < 1000 | < 10000
CCC(=O)Nc1cn2nc(-c3cnc(N)c(C(F)(F)F)c3)ccc2n1 | < 1000 | < 1000
CC(=O)Nc1cn2nc(-c3cnc(N)c(-c4ccc(C(F)(F)F)cc4)c3)ccc2n1 | < 1000 | < 1000
COc1nc(-c2cc(F)c3nc(NC(C)=O)cn3c2)cnc1N | < 1000 | < 25000
COc1c(-c2cnc(N)c(C(F)(F)F)c2)ccc2nc(NC(=O)C(F)(F)F)cn12 | < 25000 | < 25000
NC(=O)N1CCC[C@H]1C(=O)Nc1cn2cc(-c3cnc(N)c(C(F)(F)F)c3)ccc2n1 | < 10000 | < 10000
